Laboratory results from article PMC12155096 (International Journal of Molecular Sciences, 2025).
Like-named read-outs stand apart in the source and are kept apart here.

Assays:
[1] = biological target: Photinus pyralis (firefly) luciferase (Photinus pyralis, UniProt P08659); assay: biochemical; type: biochemical
human CYP1A2 [2] = biological target: T1, human CYP1A2 (Homo sapiens, UniProt P05177); details: human
T1 sequence (P05177 1-516): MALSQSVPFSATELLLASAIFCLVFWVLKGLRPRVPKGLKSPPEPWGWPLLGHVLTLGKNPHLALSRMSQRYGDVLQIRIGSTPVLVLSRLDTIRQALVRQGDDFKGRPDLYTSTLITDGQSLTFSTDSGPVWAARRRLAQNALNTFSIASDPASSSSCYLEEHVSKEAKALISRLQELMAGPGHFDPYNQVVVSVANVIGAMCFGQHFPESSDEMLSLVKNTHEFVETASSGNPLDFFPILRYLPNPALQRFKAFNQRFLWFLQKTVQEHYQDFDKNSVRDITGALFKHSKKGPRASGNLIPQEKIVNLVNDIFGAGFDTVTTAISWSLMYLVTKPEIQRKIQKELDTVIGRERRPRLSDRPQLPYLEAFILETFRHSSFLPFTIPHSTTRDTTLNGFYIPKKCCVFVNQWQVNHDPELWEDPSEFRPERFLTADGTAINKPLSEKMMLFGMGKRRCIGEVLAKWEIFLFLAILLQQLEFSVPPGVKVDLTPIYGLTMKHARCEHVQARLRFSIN

human CYP2C9 [3] = biological target: T2, human CYP2C9 (Homo sapiens, UniProt P11712); details: human
T2 sequence (P11712 whole entry): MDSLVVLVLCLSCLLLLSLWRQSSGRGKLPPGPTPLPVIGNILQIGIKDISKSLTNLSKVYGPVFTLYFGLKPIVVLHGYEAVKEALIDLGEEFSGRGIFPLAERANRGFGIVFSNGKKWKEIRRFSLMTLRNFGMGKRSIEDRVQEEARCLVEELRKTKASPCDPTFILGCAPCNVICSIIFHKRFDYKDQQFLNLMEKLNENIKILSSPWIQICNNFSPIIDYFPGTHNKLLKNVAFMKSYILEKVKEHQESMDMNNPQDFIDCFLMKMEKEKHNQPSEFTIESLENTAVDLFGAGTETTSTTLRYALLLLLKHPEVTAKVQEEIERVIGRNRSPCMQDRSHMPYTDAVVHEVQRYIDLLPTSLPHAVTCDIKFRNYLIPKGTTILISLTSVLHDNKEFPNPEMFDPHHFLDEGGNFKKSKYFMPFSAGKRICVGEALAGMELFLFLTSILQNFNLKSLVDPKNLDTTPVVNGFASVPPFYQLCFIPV

human CYP2C19 [4] = biological target: T3, human CYP2C19 (Homo sapiens, UniProt P33261); details: human
T3 sequence (P33261 whole entry): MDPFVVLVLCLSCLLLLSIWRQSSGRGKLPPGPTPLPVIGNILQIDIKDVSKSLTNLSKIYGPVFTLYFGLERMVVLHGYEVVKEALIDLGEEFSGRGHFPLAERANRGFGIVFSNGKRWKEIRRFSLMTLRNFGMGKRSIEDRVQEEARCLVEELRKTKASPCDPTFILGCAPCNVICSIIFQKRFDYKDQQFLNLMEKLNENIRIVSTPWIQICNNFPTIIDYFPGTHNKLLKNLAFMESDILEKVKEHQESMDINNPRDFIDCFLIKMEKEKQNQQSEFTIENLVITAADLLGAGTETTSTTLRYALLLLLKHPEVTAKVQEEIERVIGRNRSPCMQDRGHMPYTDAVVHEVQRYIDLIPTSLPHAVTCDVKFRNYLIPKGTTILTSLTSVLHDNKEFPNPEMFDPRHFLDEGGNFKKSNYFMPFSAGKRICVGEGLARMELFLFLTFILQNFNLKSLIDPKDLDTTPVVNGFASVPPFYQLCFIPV

human CYP2D6 [5] = biological target: T4, human CYP2D6 (Homo sapiens, UniProt P10635); details: human
T4 sequence (P10635 whole entry): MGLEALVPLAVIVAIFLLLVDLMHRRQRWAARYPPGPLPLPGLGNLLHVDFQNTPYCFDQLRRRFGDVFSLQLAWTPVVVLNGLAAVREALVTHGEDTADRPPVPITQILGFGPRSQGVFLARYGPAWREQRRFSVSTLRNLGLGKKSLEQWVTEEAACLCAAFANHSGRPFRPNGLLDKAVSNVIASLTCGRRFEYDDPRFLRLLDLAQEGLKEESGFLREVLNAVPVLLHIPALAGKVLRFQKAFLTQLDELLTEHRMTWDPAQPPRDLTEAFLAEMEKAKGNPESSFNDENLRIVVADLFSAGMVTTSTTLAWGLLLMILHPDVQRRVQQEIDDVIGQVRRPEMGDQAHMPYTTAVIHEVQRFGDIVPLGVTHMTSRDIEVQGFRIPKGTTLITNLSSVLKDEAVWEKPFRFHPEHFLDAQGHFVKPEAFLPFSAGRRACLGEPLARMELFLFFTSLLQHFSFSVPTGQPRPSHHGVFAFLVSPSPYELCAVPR

CYP3A4 [6] = biological target: T5, CYP3A4 (Homo sapiens, UniProt P08684)
T5 sequence (P08684 whole entry): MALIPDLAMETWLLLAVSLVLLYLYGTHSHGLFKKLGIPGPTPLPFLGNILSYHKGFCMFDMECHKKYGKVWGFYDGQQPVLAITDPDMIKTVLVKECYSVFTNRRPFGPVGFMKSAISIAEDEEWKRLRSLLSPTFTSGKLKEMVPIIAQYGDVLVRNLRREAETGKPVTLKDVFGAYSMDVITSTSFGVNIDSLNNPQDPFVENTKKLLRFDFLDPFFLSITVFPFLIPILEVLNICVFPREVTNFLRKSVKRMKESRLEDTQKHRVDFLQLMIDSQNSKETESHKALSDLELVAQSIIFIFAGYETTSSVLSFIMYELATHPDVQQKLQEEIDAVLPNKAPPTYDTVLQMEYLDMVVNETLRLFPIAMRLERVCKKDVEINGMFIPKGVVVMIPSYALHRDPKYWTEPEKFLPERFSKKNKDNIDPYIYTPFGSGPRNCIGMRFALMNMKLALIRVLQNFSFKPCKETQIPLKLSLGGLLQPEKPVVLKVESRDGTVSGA

human CYP1A2 [7] = biological target: T1, human CYP1A2; assay: biochemical; details: CYP1A2 IC50 (half-maximal inhibitory concentration)
human CYP2C9 [8] = biological target: T2, human CYP2C9; assay: biochemical
human CYP2C19 [9] = biological target: T3, human CYP2C19; assay: biochemical; details: CYP2C19 IC50 (half-maximal inhibitory concentration)
human CYP2D6 [10] = biological target: T4, human CYP2D6; assay: biochemical
CYP3A4 [11] = biological target: T5, CYP3A4; assay: biochemical; details: CYP3A4 IC50 (half-maximal inhibitory concentration)
[12] = CYP2C9 IC50 (half-maximal inhibitory concentration)
[13] = CYP2D6 IC50 (half-maximal inhibitory concentration)

Sequence of Photinus pyralis (firefly) luciferase (P08659 whole entry): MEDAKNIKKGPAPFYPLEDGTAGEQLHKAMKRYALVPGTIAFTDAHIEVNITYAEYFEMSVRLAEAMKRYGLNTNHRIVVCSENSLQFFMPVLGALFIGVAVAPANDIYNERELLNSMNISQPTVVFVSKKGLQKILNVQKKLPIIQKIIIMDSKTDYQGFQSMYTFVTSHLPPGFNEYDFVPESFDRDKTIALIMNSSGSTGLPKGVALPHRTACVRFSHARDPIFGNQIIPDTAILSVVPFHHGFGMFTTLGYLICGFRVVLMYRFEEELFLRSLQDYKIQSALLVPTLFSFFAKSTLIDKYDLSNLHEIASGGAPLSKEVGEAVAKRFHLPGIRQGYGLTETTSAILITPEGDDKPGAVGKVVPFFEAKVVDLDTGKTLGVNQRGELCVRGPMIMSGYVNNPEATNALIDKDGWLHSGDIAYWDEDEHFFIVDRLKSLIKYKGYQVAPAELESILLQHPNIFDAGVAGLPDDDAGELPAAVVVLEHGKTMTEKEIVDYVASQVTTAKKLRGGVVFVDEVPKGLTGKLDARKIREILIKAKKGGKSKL

Row | SMILES | Luciferase IC50 (half-maximal inhibitory concentration) [1] | CYP1A2 Efficacy (in parenthesis) (human CYP1A2 [2]) | CYP2C9 Efficacy (in parenthesis) (human CYP2C9 [3]) | CYP2C19 Efficacy (in parenthesis) (human CYP2C19 [4]) | CYP2D6 Efficacy (in parenthesis) (human CYP2D6 [5]) | CYP3A4 Efficacy (in parenthesis) (CYP3A4 [6]) | IC50 (human CYP1A2 [7]) [µM] | IC50 (human CYP2C9 [8]; [12]) [µM] | IC50 (human CYP2C19 [9]) [nM] | IC50 (human CYP2D6 [10]; [13]) [µM] | IC50 (CYP3A4 [11]) [nM] | IC50 (human CYP2C9 [8]) [µM] | IC50 (human CYP2D6 [10]) [µM]
1 | CCC1COC(Cn2cncn2)(c2ccc(Cl)cc2Cl)O1 (stereo not shown) [Etaconazole] | Inactive | 31.85 ± 3.66 (-69 ± 5) % | 5.71 ± 1.07 (-109 ± 6) % | 0.32 ± 0.04 (-137 ± 10) % | 45.4 ± 9.51 (-42 ± 2) % | 0.1 ± 0.01 (-79 ± 1) % | 31.9 | 5.71 | 320 | 45.4 | 100 |  | 
2 | COP(=S)(OC)Oc1ccc(S(=O)(=O)N(C)C)cc1 [Famphur] | Inactive | 35.73 ± 4.11 (-67 ± 14) % | 0.4 ± 0.05 (-109 ± 5) % | 0.09 ± 0.01 (-137 ± 1) % | 35.57 ± 0 (-59 ± 2) % | 9.06 ± 1.9 (-86 ± 7) % | 35.7 |  | 90 |  | 9060 | 0.4 | 35.6
3 | CC(C)C1CCC(Cc2ccc(Cl)cc2)C1(O)Cn1cncn1 (stereo not shown) [Ipconazole] | Inactive | 35.41 ± 4.07 (-90 ± 1) % | 0.79 ± 0.09 (-94 ± 4) % | 0.27 ± 0.07 (-168 ± 31) % | 22.34 ± 2.57 (-107 ± 15) % | 0.05 ± 0.01 (-89 ± 5) % | 35.4 | 0.79 | 270 | 22.3 | 50 |  | 
4 | COP(=S)(Oc1cc(Cl)c(Br)cc1Cl)c1ccccc1 (stereo not shown) [Leptophos] | Inactive | 21.38 ± 6.3 (-109 ± 13) % | 0.98 ± 0.25 (-107 ± 5) % | 0.27 ± 0.05 (-122 ± 2) % | 89.36 ± 0 (-42 ± 11) % | 7.39 ± 0.5 (-65 ± 15) % | 21.4 |  | 270 |  | 7390 | 0.98 | 89.4
5 | CCCCC(C#N)(Cn1cncn1)c1ccc(Cl)cc1 (stereo not shown) [Myclobutanil] | Inactive | 33.28 ± 11.5 (-34 ± 3) % | 25.18 ± 0 (-109 ± 4) % | 0.66 ± 0.12 (-168 ± 41) % | 49.32 ± 12.32 (-38 ± 7) % | 0.17 ± 0.05 (-75 ± 2) % | 33.3 | 25.2 | 660 | 49.3 | 170 |  | 
6 | OC(c1ccc(F)cc1)(c1cncnc1)c1ccccc1Cl (stereo not shown) [Nuarimol] | Inactive | 49.42 ± 19.58 (-46 ± 6) % | 23.57 ± 4.24 (-118 ± 8) % | 2.7 ± 1.21 (-141 ± 5) % | 35.73 ± 4.11 (-53 ± 5) % | 0.31 ± 0.08 (-68 ± 6) % | 49.4 | 23.6 | 2700 | 35.7 | 310 |  | 
7 | CCOP(=S)(OCC)Oc1ccc([N+](=O)[O-])cc1 [Parathion] | Inactive | 0.99 ± 0.17 (-96 ± 2) % | 1.62 ± 0.19 (-99 ± 2) % | 0.17 ± 0.04 (-144 ± 4) % | 32.26 ± 3.71 (-69 ± 3) % | 3.18 ± 0.89 (-79 ± 1) % | 0.99 |  | 170 |  | 3180 | 1.62 | 32.3
8 | C=CC(=O)OCC(CO)(COC(=O)C=C)COC(=O)C=C [Pentaerythritol triacrylate] | Inactive | 71.58 ± 8.23 (-54 ± 11) % | 13.25 ± 1.87 (-108 ± 2) % | 22.64 ± 2.6 (-137 ± 14) % | 63.77 ± 20.97 (-79 ± 21) % | 0.93 ± 0.39 (-89 ± 6) % | 71.6 | 13.2 | 22600 | 63.8 | 930 |  | 
